Patent publication US5436243A, “Aminoanthraquinone derivatives to combat multidrug resistance” (priority 1993, dated 1995)

How the values were obtained:
[1] = system: MCF7 Adr 10 human breast cancer cells; test: Time course of accumulation of anthraquinones in cells; assay type: cell-based; conditions: 25 μM, 37° C., MCF7 Adr 10 cells
Procedure: (§1) METHOD: Near confluent monolayers of MCF7 ADR 10 were washed 2 times with Dulbecco's Phosphate Buffered Saline (DPBS) and 1 ml of Iscove's Modified Dulbecco's Medium (IMDM) was added to each well. The monolayers were treated with 25 μM 1b or 1c and incubated at 37° C. After incubating the samples for the times indicated in FIG. 1, the monolayers were washed three times with DPBS and detached using 1 ml of Trypsin-EDTA.An aliquot of the cell suspension was counted using a Coulter Counter and a 0.8 ml aliquot was extracted in a Bligh-Dyer extraction (Bligh et at., Can. J. Biochem. 31:911-916 (1959)). The absorbance of the lower chloroform phase was measured at 648 nm and 600 nm using a spectrophotometer. The amount of 1b or 1c present in the extract was quantitated from a standard curve performed in cell extracts. The data is expressed as nmol anthraquinone/10^6 cells.

[2] = Partition in Bligh-Dyer extracts; assay type: physicochemical; conditions: Bligh-Dyer extracts of treated cells
Procedure: as §1, with “At these wavelengths, there was minimal absorbance by cellular components contained in the chloroform phase. […] METHOD:” for “METHOD:”, “Near confluent monolayers of MCF7 ADR 10 were washed 2 times with Dulbecco's Phosphate Buffered Saline (DPBS) and 1 ml of Iscove's Modified Dulbecco's Medium (IMDM) was added to each well.” left out

[3] = system: A704 human renal cell line; test: Vinblastine accumulation assay, A704; assay type: cell-based; conditions: 10 μM, 10 nM [3H] vinblastine
Procedure: (§2) These cell lines are models of intrinsic resistance.
(§3) [^3 H] vinblastine was added to a final concentration of 10 nM and the cells were incubated for 2.5 hours. At this time, the cells were washed 3 times in ice cold PBS and lysed in buffer containing 0.1% Triton X-100.

[4] = system: UOK-39 human renal cell line; test: Vinblastine accumulation assay, UOK-39; assay type: cell-based; conditions: 10 μM, 10 nM [3H] vinblastine
Procedure: as §2, §3

[5] = system: catalytic subunits of protein kinase A; test: Protein kinase A catalytic subunit inhibition; assay type: biochemical
Description: One possible explanation for stimulation of phosphorylation of P-glycoprotein and MARCKS is that 1c may activate PKC or other cellular kinases by signal transduction pathways that have not yet been identified to phosphorylate these proteins. An alternative explanation for stimulation of phosphorylation of P-glycoprotein and MARCKS is that 1c inhibits protein phosphatases.

[6] = [3H] VLB binding to MCF7 WT membrane vesicles; set-up: species or system human; conditions: MCF7 WT membrane vesicles
Procedure: METHOD: Membrane vesicles from sensitive and MDR MCF7 were prepared by nitrogen cavitation and isolated by centrifugation in discontinuous sucrose gradients. […] In the presence of 100 nM [^3 H] VLB and ATP, total and nonspecific binding of [^3 H] VLB (experimentally defined as binding in the presence of a 100 μM unlabeled VLB) was measured. Association of [^3 H] […] In contrast, association of [^3 H] […] VLB with MCF7 WT vesicles.

[7] = system: MCF7 WT; test: Tumor cell clonogenic assay, MCF7 WT; assay type: cell-based, human
Procedure: The tumor cell clonogenic assays measure clonal proliferation of tumor cells. In this assay, 300-500 cells are plated in 10 cm^2 wells, allowed to adhere overnight, and are treated the following day. Tumor cell colonies were counted after 10-12 days of culture. […] The IC50's are calculated as described above for the MTT proliferation assays.

[8] = in vitro; conditions: human
Procedure: (§4) Myelosuppression is often a dose limiting side effect of chemotherapeutic agents. […] The toxicities to human granulocyte-macrophage progenitors (CFU-GM) of 1b, 1c, and VLB was assessed by measuring inhibition of CFU-GM proliferation in cultures continuously exposed to each agent alone and compared to the toxicities to sensitive and resistant MCF7 in tumor cell clonogenic assays.
(§5) METHOD: The CFLI-GM assay measures clonal proliferation of granulocyte/macrophage precursors in semisolid agar cultures. The progeny of the granulocyte/macrophage precursors remain in proximity of the progenitor cells and form colonies. Colonies which contain greater than 40 cells after 10-12 days of culture are counted using an inverted phase contrast microscope. The tumor cell clonogenic assays measure clonal proliferation of tumor cells. In this assay, 300-500 cells are plated in 10 cm^2 wells, allowed to adhere overnight, and are treated the following day. Tumor cell colonies were counted after 10-12 days of culture. The times of exposure in these experiments are similar; however, the concentrations of FCS are 20% in the CFU-GM assay and 10% in the tumor cell clonogenic assays. The IC50's are calculated as described above for the MTT proliferation assays. (See Example 4).
(§6) To facilitate this comparison, a CFLI-GM toxicity index was calculated by dividing the CFU-GM IC50 by the respective tumor cell clonogenic IC50's in sensitive and resistant cells.

[9] = system: granulocyte-macrophage progenitors (CFU-GM); test: cells
Procedure: as §4, §5, §6

[10] = system: mice; test: Preliminary animal toxicity studies; assay type: in vivo; conditions: 400 mg/kg
[11] = biological target: P-glycoprotein in MCF7 Adr 10 membrane vesicles (Homo sapiens, UniProt P08183)
P-glycoprotein in MCF7 Adr 10 membrane vesicles, sequence (P08183 whole entry): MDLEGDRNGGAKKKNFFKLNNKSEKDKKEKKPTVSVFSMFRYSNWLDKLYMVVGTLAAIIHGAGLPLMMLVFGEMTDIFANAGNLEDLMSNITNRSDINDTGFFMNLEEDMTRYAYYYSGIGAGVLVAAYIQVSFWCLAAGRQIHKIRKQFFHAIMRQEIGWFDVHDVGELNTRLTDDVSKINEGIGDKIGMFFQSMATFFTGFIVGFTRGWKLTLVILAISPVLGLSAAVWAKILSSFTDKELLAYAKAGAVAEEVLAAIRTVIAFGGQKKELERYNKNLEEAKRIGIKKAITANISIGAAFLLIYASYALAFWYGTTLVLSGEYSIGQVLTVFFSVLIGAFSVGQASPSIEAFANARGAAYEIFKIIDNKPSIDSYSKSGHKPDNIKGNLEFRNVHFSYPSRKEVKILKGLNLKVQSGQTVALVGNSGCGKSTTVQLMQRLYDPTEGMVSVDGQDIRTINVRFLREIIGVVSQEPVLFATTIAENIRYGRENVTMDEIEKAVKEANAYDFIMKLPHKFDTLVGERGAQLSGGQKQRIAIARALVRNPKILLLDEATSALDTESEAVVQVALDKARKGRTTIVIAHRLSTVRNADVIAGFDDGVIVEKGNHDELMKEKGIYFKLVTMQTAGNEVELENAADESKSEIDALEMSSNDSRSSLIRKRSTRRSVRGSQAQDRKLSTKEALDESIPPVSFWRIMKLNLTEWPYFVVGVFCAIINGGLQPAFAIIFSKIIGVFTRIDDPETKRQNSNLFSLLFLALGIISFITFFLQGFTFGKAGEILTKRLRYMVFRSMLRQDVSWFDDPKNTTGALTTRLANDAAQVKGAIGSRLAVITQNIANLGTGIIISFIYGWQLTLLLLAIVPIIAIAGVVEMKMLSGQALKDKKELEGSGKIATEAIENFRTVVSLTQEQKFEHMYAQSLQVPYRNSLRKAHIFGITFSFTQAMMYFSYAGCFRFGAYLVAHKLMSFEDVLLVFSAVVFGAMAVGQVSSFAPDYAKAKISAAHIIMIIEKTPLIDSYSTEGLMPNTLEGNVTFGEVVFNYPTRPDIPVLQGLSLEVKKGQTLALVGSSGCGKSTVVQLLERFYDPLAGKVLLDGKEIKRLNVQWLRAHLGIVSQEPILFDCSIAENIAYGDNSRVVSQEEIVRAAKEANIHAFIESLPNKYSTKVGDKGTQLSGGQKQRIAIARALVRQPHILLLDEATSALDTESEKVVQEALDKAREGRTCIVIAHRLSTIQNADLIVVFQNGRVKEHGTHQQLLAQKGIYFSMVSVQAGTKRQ

SMILES: O=C1c2ccccc2C(=O)c2c(NCCCN3CCOCC3)ccc(NCCCN3CCOCC3)c21 [Compound 1c, 1,4-bis-[[3'(4-morpholino)propyl]amino]anthraquinone]
- time of maximal accumulation of 1b and 1c [1]: about 2 hours
- blue color partitioning with cellular phospholipids in the lower chloroform phase [2]: > 95%
- vinblastine accumulation relative to verapamil [3]: comparable or superior to verapamil activity
- vinblastine accumulation relative to verapamil [4]: comparable or superior to verapamil activity
- protein kinase A inhibitory activity [5]: did not inhibit
- effect on specific binding of [3H] VLB [6]: no effect
- IC50 ([7]; Homo sapiens, MCF7, tumor cell clonogenic assay, 10-12 days, read-out: Continuous Exposure IC50, MCF7 WT): 0.8 µM
- antiproliferative effect relative to human CFU-GM ([7]; sensitive cancer cells, clonal proliferation assays): approximately 10 times
- selectivity ratio ([8]; CFU-GM Toxicity Index (CFU-GM IC50 / Tumor Cell Clonogenic IC50)): 9.8
- selectivity ratio ([8]; cfu-gm vs mcf7, lower sensitivity of CFU-GM than drug sensitive (WT) and MDR cancer cell lines): 10 to 20
- IC50 ([9]; Homo sapiens, CFU-GM, read-out: Continuous Exposure IC50, CFU-GM): 7.8 µM
- CFU-GM Toxicity Index (CFU-GM IC50 / Tumor Cell Clonogenic IC50) ([9]; human): 19.5
- toxicity in mice [10]: not toxic at 400 mg/kg in mice
- effect on non-specific binding of [3H] VLB [11]: no effect
